Test [1] concerns intracellular M. tuberculosis. As to the kind of experiment: microbe, parasite or virus in culture. The class given is cell-based, Mycobacterium tuberculosis.
Test [2] has as its system extracellular M. tuberculosis. Nature of the test: microbe, parasite or virus in culture. It counts as cell-based, Mycobacterium tuberculosis.
The subject of test [3] is extracellular M. tuberculosis. As to the kind of experiment: microbe, parasite or virus in culture. The conditions noted are these: Mycobacterium tuberculosis. It counts as cell-based.
In test [4] the test system is replicating M. tuberculosis. As to the kind of experiment: Kill kinetics against replicating M. tuberculosis. It counts as cell-based, Mycobacterium tuberculosis. The note with it: up to 100 μM, over 21 days, aerobic culture in 7H9-Tw-OADC.
The test system of a further test is HepG2 cells. As to the kind of experiment: cells. The class given is cell-based, human. The note with it: Homo sapiens, HepG2; 72 h, CellTiter-Glo. A general note: In ATP-based viability assays light output follows the ATP content of the culture.
The test system of a further test is macrophages (RAW 264.7). Nature of the test: cells. The class given is cell-based, murine. The note with it: Mus musculus, RAW264.7; RAW 264.7 infected macrophages, high-content assay, 72 h; read-out: Macrophage IC50.

The structures appear in SMILES notation. Like-named read-outs stand apart in the source and are kept apart here.

For the compound `CCOc1ccc(NC(=S)Nc2ccc(OC)cc2)cc1` [Compound 14], the “selectivity index (SI)” value in test [1] (cytotoxicity IC50 over intracellular M. tuberculosis IC50) was > 588. Besides, the “fold difference between extracellular and intracellular IC50” value in test [1] (extracellular versus intracellular M. tuberculosis) is reported as > 40 fold. Besides, the IC50 in test [2] (Mycobacterium tuberculosis, 168 h, read-out: Cholesterol IC50) was 15 µM; in test [3] (120 h, read-out: Extracellular TB IC50), 7.2 µM; in test [3] (glucose as carbon source, read-out: Glucose IC50), 7.2 µM; in the test on HepG2 cells it was > 100 µM; in the test with macrophages (RAW 264.7), > 100 µM. In test [2] (glucose IC50 versus cholesterol IC50), this compound had a Fold-change of 0.5. Also, the “culture viability (CFU) in kill kinetics” value in test [4] is listed as “small decrease in viable bacteria at day 21 at the highest concentration”.

As usually defined, the IC50 is the concentration that inhibits the measured activity by half.
